The results in this text go back to patent USRE44733E1, “6-mercapto-cyclodextrin derivatives:reversal agents for drug-induced neuromuscular block” (Merck Sharp & Dohme B.V., priority 1999, dated 2014).

For this assay, the system named is neuromuscular block, induced by the muscle relaxant rocuronium bromide (Roc). Briefly: Reversal of neuromuscular blockade in anaesthetized guinea pigs in vivo. The following applies: for concentration at maximum reversal (at conc.) / % max reversal: anaesthetized guinea pigs, rocuronium bromide steady-state block; for concentration at maximum reversal (at conc.): dose of reversal agent at which % max reversal was seen; for % max reversal: maximum reversal; for ED50: dose producing 50% reversal of steady-state neuromuscular block: anaesthetized male Dunkin-Hartley guinea pigs, steady-state block of 85-90% by continuous rocuronium bromide infusion, reversal agent given by jugular vein catheter, M. gastrocnemius contractions. How it is done:
Reversal of Neuromuscular Blockade in Anaesthetized Guinea Pigs in vivo
Male Dunkin-Hartley guinea pigs (bodyweight: 600-900 g) were anaesthetized by i.p. administration of 10 mg/kg pentobarbitone and 1000 mg/kg urethane. After tracheotomy, the animals were artificially ventilated using a Harvard small animal ventilator. A catheter was placed into the carotid artery for continuous monitoring of arterial blood pressure and the taking of blood samples for blood gas analysis. Heart rate was derived from the blood pressure signal. The sciatic nerve was stimulated (rectangular pulses of 0.5 ms duration at 10 s (0.1 Hz) intervals at a supramaximal voltage, using a Grass S88 Stimulator) and the force of M. gastrocnemius contractions was measured using a Grass FT03 force-displacement transducer. Contractions, blood pressure and heart rate were recorded on a multichannel Grass 7D recorder. Catheters were placed in both jugular veins. One catheter was used for the continuous infusion of a neuromuscular blocking agent. The infusion rate of the neuromuscular blocking agent was increased until a steady-state block of 85-90% was obtained. The other catheter was used for administration of increasing doses of the reversal agent. During continuous infusion of the neuromuscular blocking agent, single doses of increasing concentration of reversal agent were given. At the end of the experiment, the measured force of muscle contractions was plotted against the concentration of reversal agent, and using regression analysis techniques, the 50% reversal concentration was calculated. Results for the reversal of the neuromuscular block, induced by the muscle relaxant rocuronium bromide (Roc), by the 6-mercapto-cyclodextrin derivatives of Examples 1-19 are presented in Table I. For comparison, the reversal activity of the parent compounds β-cyclodextrin and γ-cyclodextrin are included as well.

As to `OCC(CO)(CO)CSCC1OC2OC3C(CSCC(CO)(CO)CO)OC(OC4C(CSCC(CO)(CO)CO)OC(OC5C(CSCC(CO)(CO)CO)OC(OC6C(CSCC(CO)(CO)CO)OC(OC7C(CSCC(CO)(CO)CO)OC(OC8C(CSCC(CO)(CO)CO)OC(OC9C(CSCC(CO)(CO)CO)OC(OC1C(O)C2O)C(O)C9O)C(O)C8O)C(O)C7O)C(O)C6O)C(O)C5O)C(O)C4O)C(O)C3O` (stereo not drawn) [example 18, 6-Per-deoxy-6-per(2,2-di(hydroxymethyl)-3-hydroxy-propyl)thio-γ-cyclodextin], the “concentration at maximum reversal (at conc.)” value (“concentration” below) is “(4.9) μmol · kg^−1”, the “% max reversal” value is on record as 63% and the “ED50: dose producing 50% reversal of steady-state neuromuscular block” value (shortened to “ED50: dose producing 50% reversal”) worked out at 2.9 µmol/kg.
As to `OC1C2OC(CSCCCc3nnn[n-]3)C(OC3OC(CSCCCc4nnn[n-]4)C(OC4OC(CSCCCc5nnn[n-]5)C(OC5OC(CSCCCc6nnn[n-]6)C(OC6OC(CSCCCc7nnn[n-]7)C(OC7OC(CSCCCc8nnn[n-]8)C(OC8OC(CSCCCc9nnn[n-]9)C(OC9OC(CSCCCc%10nnn[n-]%10)C(O2)C(O)C9O)C(O)C8O)C(O)C7O)C(O)C6O)C(O)C5O)C(O)C4O)C(O)C3O)C1O.[Na+].[Na+].[Na+].[Na+].[Na+].[Na+].[Na+].[Na+]` (stereo not drawn) [example 19, 6-Per-deoxy-6-per(3-(tetrazol-5-yl)propyl)thio-γ-cyclodextrin, Sodium Salt], the “concentration” value is listed as “(1.2) μmol · kg^−1”, the “% max reversal” value amounted to 109% and the “ED50: dose producing 50% reversal” value was determined as 0.22 µmol/kg.
In the case of `OC[C@H]1O[C@@H]2O[C@H]3[C@H](O)[C@@H](O)[C@@H](O[C@H]4[C@H](O)[C@@H](O)[C@@H](O[C@H]5[C@H](O)[C@@H](O)[C@@H](O[C@H]6[C@H](O)[C@@H](O)[C@@H](O[C@H]7[C@H](O)[C@@H](O)[C@@H](O[C@H]8[C@H](O)[C@@H](O)[C@@H](O[C@H]1[C@H](O)[C@H]2O)O[C@@H]8CO)O[C@@H]7CO)O[C@@H]6CO)O[C@@H]5CO)O[C@@H]4CO)O[C@@H]3CO` [β-cyclodextrin, reference compound], the “concentration” value is “(113) μmol · kg^−1”, the “% max reversal” value stood at 93% and the “ED50: dose producing 50% reversal” value worked out at 20 µmol/kg.
Consider `OC[C@H]1O[C@@H]2O[C@H]3[C@H](O)[C@@H](O)[C@@H](O[C@H]4[C@H](O)[C@@H](O)[C@@H](O[C@H]5[C@H](O)[C@@H](O)[C@@H](O[C@H]6[C@H](O)[C@@H](O)[C@@H](O[C@H]7[C@H](O)[C@@H](O)[C@@H](O[C@H]8[C@H](O)[C@@H](O)[C@@H](O[C@H]9[C@H](O)[C@@H](O)[C@@H](O[C@H]1[C@H](O)[C@H]2O)O[C@@H]9CO)O[C@@H]8CO)O[C@@H]7CO)O[C@@H]6CO)O[C@@H]5CO)O[C@@H]4CO)O[C@@H]3CO` [γ-cyclodextrin, reference compound], for which the “concentration” value is on record as “(47) μmol · kg^−1”, the “% max reversal” value is 104% and the “ED50: dose producing 50% reversal” value was found to be 4 µmol/kg.
